Among the data in ChEMBL document CHEMBL1129671, “Substituted (pyrroloamino)pyridines: potential agents for the treatment of Alzheimer's disease” (J Med Chem, 1996) are IC50 values, retold here.

As usually defined, the IC50 is the concentration that inhibits the measured activity by half.

The species entered for assay [1] is Rattus norvegicus. Description: Compound was tested for inhibition of [3H]5-HT against rat whole brain using in vitro biogenic amine uptake assay using rat brain synaptosomes. The assay is classed as functional.
In assay [2] the target is Muscarinic acetylcholine receptor. Description: Inhibition of radioligand [3H]QNB binding to muscarinic acetylcholine receptor in the rat forebrain in the presence of zinc.
The target of assay [3] is T1, Adrenergic receptor alpha-2 (Rattus norvegicus, UniProt P22086+P19328+P22909).
T1 sequence (P22086 whole entry): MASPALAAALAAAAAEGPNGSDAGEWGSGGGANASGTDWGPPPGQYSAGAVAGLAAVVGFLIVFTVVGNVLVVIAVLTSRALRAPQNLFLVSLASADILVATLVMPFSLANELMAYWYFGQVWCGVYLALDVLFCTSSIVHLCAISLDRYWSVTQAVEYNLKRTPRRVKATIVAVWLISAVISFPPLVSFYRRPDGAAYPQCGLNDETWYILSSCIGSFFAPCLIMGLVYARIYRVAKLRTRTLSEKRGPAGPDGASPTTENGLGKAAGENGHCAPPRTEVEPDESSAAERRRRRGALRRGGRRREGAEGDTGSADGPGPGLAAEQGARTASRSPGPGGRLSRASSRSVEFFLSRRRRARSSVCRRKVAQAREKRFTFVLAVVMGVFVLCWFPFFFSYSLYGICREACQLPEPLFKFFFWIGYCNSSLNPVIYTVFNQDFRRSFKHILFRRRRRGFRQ
T1 sequence (P19328 whole entry): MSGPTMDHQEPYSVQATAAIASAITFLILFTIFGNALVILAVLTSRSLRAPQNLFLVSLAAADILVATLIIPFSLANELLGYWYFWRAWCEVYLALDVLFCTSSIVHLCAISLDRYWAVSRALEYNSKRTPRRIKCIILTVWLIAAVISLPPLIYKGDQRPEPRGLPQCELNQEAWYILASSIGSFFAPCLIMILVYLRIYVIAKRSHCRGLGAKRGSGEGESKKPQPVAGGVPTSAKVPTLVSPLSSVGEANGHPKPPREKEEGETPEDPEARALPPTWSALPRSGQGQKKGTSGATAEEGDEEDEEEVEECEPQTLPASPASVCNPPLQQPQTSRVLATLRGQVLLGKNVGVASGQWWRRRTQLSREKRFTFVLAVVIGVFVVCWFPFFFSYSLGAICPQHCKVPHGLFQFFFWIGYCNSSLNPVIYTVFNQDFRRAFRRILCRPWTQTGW
T1 sequence (P22909 whole entry): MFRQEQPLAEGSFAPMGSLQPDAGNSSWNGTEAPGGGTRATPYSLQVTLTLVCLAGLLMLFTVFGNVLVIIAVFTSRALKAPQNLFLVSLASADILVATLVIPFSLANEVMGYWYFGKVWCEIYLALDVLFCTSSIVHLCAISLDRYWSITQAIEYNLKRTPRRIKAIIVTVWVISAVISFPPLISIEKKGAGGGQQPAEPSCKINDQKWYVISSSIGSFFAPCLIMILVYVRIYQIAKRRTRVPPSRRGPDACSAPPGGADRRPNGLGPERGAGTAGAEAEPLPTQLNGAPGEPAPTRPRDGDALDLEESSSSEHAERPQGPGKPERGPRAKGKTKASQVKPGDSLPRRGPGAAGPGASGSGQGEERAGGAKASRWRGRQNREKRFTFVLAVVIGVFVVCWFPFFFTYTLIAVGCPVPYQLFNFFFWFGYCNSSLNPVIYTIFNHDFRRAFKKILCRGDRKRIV
In words: Compound was tested for inhibition of [3H]clonidine against Alpha-2 adrenergic receptor from rat cortical membranes using in vitro adrenergic receptor binding assay. Format: cell membranes, Membrane.

For assay [4], the target named is Muscarinic acetylcholine receptor. Description: Inhibition of radioligand [3H]QNB binding (competitive inhibition) to muscarinic acetylcholine receptor in the rat forebrain in the absence of zinc.
The target of assay [5] is T2, Adrenergic receptor alpha-1 (Rattus norvegicus, UniProt P15823+P23944+P43140).
T2 sequence (P15823 whole entry): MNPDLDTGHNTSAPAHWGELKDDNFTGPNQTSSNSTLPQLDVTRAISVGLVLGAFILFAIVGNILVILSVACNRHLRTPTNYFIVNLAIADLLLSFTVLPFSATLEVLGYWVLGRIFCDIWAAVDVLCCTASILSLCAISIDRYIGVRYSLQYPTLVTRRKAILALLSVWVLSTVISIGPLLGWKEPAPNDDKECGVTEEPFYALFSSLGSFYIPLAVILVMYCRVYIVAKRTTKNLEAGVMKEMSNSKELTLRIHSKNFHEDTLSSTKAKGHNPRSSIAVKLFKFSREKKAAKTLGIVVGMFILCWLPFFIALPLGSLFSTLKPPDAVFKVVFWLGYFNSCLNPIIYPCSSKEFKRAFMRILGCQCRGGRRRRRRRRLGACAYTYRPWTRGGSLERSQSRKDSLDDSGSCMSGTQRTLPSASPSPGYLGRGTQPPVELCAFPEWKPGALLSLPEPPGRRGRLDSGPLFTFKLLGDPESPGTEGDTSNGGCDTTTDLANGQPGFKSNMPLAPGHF
T2 sequence (P23944 whole entry): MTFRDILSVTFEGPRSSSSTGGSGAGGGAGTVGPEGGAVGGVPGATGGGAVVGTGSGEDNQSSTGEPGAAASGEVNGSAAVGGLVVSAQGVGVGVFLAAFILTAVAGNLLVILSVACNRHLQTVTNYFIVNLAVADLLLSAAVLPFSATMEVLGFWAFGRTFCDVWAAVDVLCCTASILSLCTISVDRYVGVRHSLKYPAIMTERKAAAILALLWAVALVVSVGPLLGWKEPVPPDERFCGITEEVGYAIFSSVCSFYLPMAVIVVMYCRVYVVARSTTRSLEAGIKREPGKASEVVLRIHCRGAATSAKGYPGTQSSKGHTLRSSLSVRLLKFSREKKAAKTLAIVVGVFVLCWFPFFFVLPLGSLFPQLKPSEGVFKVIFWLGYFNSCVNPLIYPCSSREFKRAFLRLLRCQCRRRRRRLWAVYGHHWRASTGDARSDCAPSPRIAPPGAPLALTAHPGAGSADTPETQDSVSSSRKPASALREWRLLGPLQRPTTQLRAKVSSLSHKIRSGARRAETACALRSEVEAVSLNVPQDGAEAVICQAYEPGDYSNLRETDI
T2 sequence (P43140 whole entry): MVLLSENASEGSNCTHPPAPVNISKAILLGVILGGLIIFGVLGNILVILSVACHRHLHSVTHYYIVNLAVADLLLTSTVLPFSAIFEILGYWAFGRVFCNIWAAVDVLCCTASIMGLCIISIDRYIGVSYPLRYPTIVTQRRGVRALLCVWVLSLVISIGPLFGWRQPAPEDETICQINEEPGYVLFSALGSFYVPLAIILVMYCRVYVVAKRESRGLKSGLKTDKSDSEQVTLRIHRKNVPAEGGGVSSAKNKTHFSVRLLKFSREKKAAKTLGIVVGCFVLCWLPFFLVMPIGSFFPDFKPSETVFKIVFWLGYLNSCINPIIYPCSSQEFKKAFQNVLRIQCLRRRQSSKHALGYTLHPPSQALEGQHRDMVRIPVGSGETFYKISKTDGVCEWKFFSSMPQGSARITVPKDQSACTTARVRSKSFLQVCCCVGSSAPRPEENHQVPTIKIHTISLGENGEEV
In words: Compound was tested for inhibition of [3H]WB-4101 against Alpha-1 adrenergic receptor from rat whole brain membranes using in vitro adrenergic receptor binding assay. The assay is classed as cell membranes, Membrane.

Regarding `C=Cc1cccn1N(C)c1ccncc1`, the IC50 was above 20 µM in assay [1]; 18 µM in assay [2]; 0.21 µM in assay [3]; 8.8 µM in assay [4]; 5.9 µM in assay [5].
